Assay results reported in patent US10517889B2, “Modulators of SMAD7 expression” (Ionis Pharmaceuticals, Inc., priority 2017, dated 2019).
Strand notation (5' to 3'): a small letter for the sugar, then the base; units joined by * are phosphorothioate-linked, units joined directly phosphodiester-linked; [ ] holds rarer units or linkages, { } end groups; capitals alone tell only the bases. k = constrained ethyl (cEt); [5mC] = 5-methylcytosine; d = 2'-deoxy (DNA)

Tested on: human SMAD7 mRNA
Experiment: Antisense inhibition of human SMAD7 mRNA expression in Hep3B cells by 3-10-3 cEt gapmers, 10,000 nM, electroporation (Example 2)
Assay type: cell-based
Settings: Hep3B cells, approximately 24 hours; for % inhibition of SMAD7 mRNA expression: electroporation, 10,000 nM antisense oligonucleotide, RTS5062, relative to untreated control cells; for % Inhibition: electroporation with 10,000 nM antisense oligonucleotide, RTS5062, percent inhibition of SMAD7 mRNA relative to untreated control cells
In short: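 Hep3B, 20,000 cells/well; electroporation, 10,000 nM ASO; ~24 h. Readout: SMAD7 mRNA by qRT-PCR (RTS5062), RIBOGREEN-normalised; % inhibition vs untreated.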

Row | Substance | % inhibition of SMAD7 mRNA expression [%] | % Inhibition [%]
1 | 799780 (k[5mC]*k[5mC]*kA*dT*dA*dA*dA*d[5mC]*dA*dA*dA*d[5mC]*d[5mC]*kA*k[5mC]*kA; antisense) [compound 799780] | 28 | 
2 | 799782 (k[5mC]*kA*kT*dA*dA*dT*dA*dG*dG*dT*dG*dT*d[5mC]*kA*kA*kT; antisense) [compound 799782] |  | 4
3 | 799783 (kG*k[5mC]*kA*d[5mC]*dA*dT*dA*dA*dT*dA*dG*dG*dT*kG*kT*k[5mC]; antisense) [compound 799783] |  | 24
4 | 799784 (k[5mC]*kA*kG*dG*dA*dA*d[5mC]*dT*dG*dG*dT*d[5mC]*d[5mC]*kT*k[5mC]*kT; antisense) [compound 799784] |  | 19
5 | 799785 (k[5mC]*kT*k[5mC]*d[5mC]*dA*dG*dG*dT*dA*dG*dA*dG*dG*k[5mC]*kA*kA; antisense) [compound 799785] |  | 0
6 | 799786 (kA*k[5mC]*kA*dG*dA*dA*dG*d[5mC]*dT*dG*d[5mC]*d[5mC]*d[5mC]*k[5mC]*kT*kG; antisense) [compound 799786] |  | 0
7 | 799788 (k[5mC]*kA*k[5mC]*dA*dA*d[5mC]*d[5mC]*dA*dA*dA*dG*d[5mC]*dA*kG*kA*kA; antisense) [compound 799788] |  | 59
8 | 799789 (kA*k[5mC]*kA*d[5mC]*dA*dA*d[5mC]*d[5mC]*dA*dA*dA*dG*d[5mC]*kA*kG*kA; antisense) [compound 799789] |  | 44
9 | 799790 (kG*kA*kG*dA*d[5mC]*d[5mC]*dT*dA*d[5mC]*d[5mC]*dT*d[5mC]*dT*kG*kT*kT; antisense) [compound 799790] |  | 33
10 | 799792 (kA*k[5mC]*k[5mC]*dA*dA*dA*dA*d[5mC]*d[5mC]*d[5mC]*dG*dG*dG*kA*kG*kA; antisense) [compound 799792] | 31 | 
11 | 799793 (kG*kT*kT*d[5mC]*dT*dT*d[5mC]*d[5mC]*dT*dG*d[5mC]*dT*dG*kT*k[5mC]*kA; antisense) [compound 799793] | 30 | 
12 | 799794 (kA*kA*k[5mC]*d[5mC]*dA*d[5mC]*dA*dG*d[5mC]*dT*d[5mC]*d[5mC]*dT*kG*kT*kT; antisense) [compound 799794] | 0 | 
13 | 799795 (k[5mC]*k[5mC]*kA*dG*dA*dT*dG*dT*dT*dT*d[5mC]*d[5mC]*d[5mC]*k[5mC]*kA*k[5mC]; antisense) [compound 799795] | 66 | 
14 | 799796 (k[5mC]*kA*kT*dT*dA*dG*dA*dT*dA*d[5mC]*dT*dG*dT*k[5mC]*kT*kT; antisense) [compound 799796] | 43 | 
15 | 799797 (kG*kA*k[5mC]*dA*dT*dT*dA*dG*dA*dT*dA*d[5mC]*dT*kG*kT*k[5mC]; antisense) [compound 799797] | 27 | 
16 | 799798 (kT*k[5mC]*k[5mC]*d[5mC]*dA*d[5mC]*dT*dT*d[5mC]*dT*d[5mC]*d[5mC]*dT*k[5mC]*kT*kG; antisense) [compound 799798] | 50 | 
17 | 799799 (kA*kA*kA*dA*d[5mC]*dA*dT*d[5mC]*d[5mC]*d[5mC]*dA*d[5mC]*dT*kT*k[5mC]*kT; antisense) [compound 799799] | 28 | 
18 | 799800 (kT*kT*kA*d[5mC]*dA*dA*dA*dG*dG*dG*dA*dA*dA*kG*kT*k[5mC]; antisense) [compound 799800] | 28 | 
19 | 799801 (kA*kA*kT*d[5mC]*dA*dA*dG*dT*d[5mC]*d[5mC]*dT*d[5mC]*dT*kG*kG*kA; antisense) [compound 799801] |  | 18
20 | 799802 (k[5mC]*k[5mC]*kA*dG*dA*d[5mC]*dA*dG*dG*d[5mC]*d[5mC]*dA*dG*kG*kG*k[5mC]; antisense) [compound 799802] |  | 20
21 | 799803 (kA*kG*kA*dA*dG*dG*dA*dT*dG*dA*dA*dT*dG*kT*kG*kA; antisense) [compound 799803] |  | 10
22 | 799804 (kA*k[5mC]*kA*dG*dA*d[5mC]*dA*dG*dA*dG*dA*dA*dG*kG*kA*kT; antisense) [compound 799804] |  | 38
23 | 799805 (k[5mC]*kG*kA*dG*dA*dA*dG*dA*dG*dT*dA*dA*dT*kT*k[5mC]*kA; antisense) [compound 799805] |  | 1
24 | 799806 (antisense kG*kA*kG*dG*dA*dG*d[5mC]*dG*dA*dG*dA*dA*dG*kA*kG*kT) [compound 799806] |  | 6
25 | 799807 (antisense kA*kA*kA*dT*dT*dG*dG*dA*dA*dT*dT*dG*dA*kG*kA*k[5mC]) [compound 799807] |  | 37
26 | 799809 (antisense k[5mC]*kA*kA*dT*dA*d[5mC]*dT*dG*dA*dA*dA*dT*dG*kA*kG*k[5mC]) [compound 799809] |  | 43

Row | Substance | % inhibition of SMAD7 mRNA expression [%] | % Inhibition [%]
27 | 799810 (antisense k[5mC]*kT*kT*dA*dT*dT*dG*dT*dT*dT*dT*dT*dG*kT*kT*k[5mC]) [compound 799810] |  | 14
28 | 799811 (antisense k[5mC]*kT*kG*d[5mC]*d[5mC]*dA*dA*d[5mC]*dG*dG*d[5mC]*dA*d[5mC]*kA*kG*kT) [compound 799811] | 0 | 
29 | 799812 (antisense k[5mC]*kA*kG*dA*d[5mC]*dA*dG*d[5mC]*dT*dA*dA*dT*d[5mC]*kT*kG*k[5mC]) [compound 799812] | 39 | 
30 | 799813 (antisense kA*kT*kG*d[5mC]*dA*dG*dA*d[5mC]*dA*dG*d[5mC]*dT*dA*kA*kT*k[5mC]) [compound 799813] | 16 | 
31 | 799814 (antisense k[5mC]*k[5mC]*kT*d[5mC]*dA*d[5mC]*dT*dT*dA*dG*d[5mC]*d[5mC]*dT*kG*k[5mC]*kA) [compound 799814] | 0 | 
32 | 799815 (antisense k[5mC]*kT*k[5mC]*dT*dT*dG*dA*dT*dG*dA*dT*d[5mC]*d[5mC]*kT*k[5mC]*kA) [compound 799815] | 68 | 
33 | 799816 (antisense kT*kG*kA*d[5mC]*dA*dA*dG*dG*dT*d[5mC]*d[5mC]*d[5mC]*d[5mC]*kA*kG*kG) [compound 799816] | 19 | 
34 | 799817 (antisense kT*kA*k[5mC]*dT*dG*dA*dT*dT*d[5mC]*dA*dT*dG*dA*kG*kG*kG) [compound 799817] | 45 | 
35 | 799818 (antisense k[5mC]*kA*k[5mC]*dT*dG*dA*dT*dA*dA*d[5mC]*dT*dA*dA*k[5mC]*kT*kT) [compound 799818] | 24 | 
36 | 799819 (antisense k[5mC]*k[5mC]*k[5mC]*d[5mC]*dA*d[5mC]*dT*dG*dA*dG*d[5mC]*dA*dG*kG*kA*kG) [compound 799819] | 26 | 
37 | 799820 (antisense k[5mC]*k[5mC]*k[5mC]*d[5mC]*dA*dG*d[5mC]*dA*dG*dG*dG*dT*dT*kT*kT*kG) [compound 799820] | 0 | 
38 | 799821 (antisense k[5mC]*k[5mC]*k[5mC]*d[5mC]*dA*dG*dA*dA*dA*dA*d[5mC]*dA*dG*k[5mC]*k[5mC]*k[5mC]) [compound 799821] |  | 17
39 | 799822 (antisense k[5mC]*kA*k[5mC]*dG*dA*dT*d[5mC]*d[5mC]*dT*dG*dG*dG*d[5mC]*kT*k[5mC]*kT) [compound 799822] |  | 0
40 | 799823 (antisense kA*k[5mC]*kA*dG*dG*dA*dA*dA*dG*dT*dG*dG*dA*kG*kG*kA) [compound 799823] |  | 46
41 | 799824 (antisense kG*kA*kA*dA*dT*dG*dG*d[5mC]*dT*d[5mC]*d[5mC]*dT*dG*k[5mC]*kA*kA) [compound 799824] |  | 9
42 | 799825 (antisense kG*kA*k[5mC]*dT*dT*dG*dG*d[5mC]*dA*dG*d[5mC]*d[5mC]*dA*kA*kG*k[5mC]) [compound 799825] |  | 0
43 | 799826 (antisense kG*kA*kT*d[5mC]*dA*dT*dT*d[5mC]*d[5mC]*d[5mC]*dA*d[5mC]*dA*k[5mC]*k[5mC]*k[5mC]) [compound 799826] |  | 33
44 | 799827 (antisense kA*kA*k[5mC]*dT*dA*d[5mC]*dA*dA*d[5mC]*d[5mC]*dT*dT*dT*kT*kT*kA) [compound 799827] |  | 26
45 | 799828 (antisense kT*kG*k[5mC]*dG*dA*dG*d[5mC]*d[5mC]*dA*dA*dG*dA*dG*kA*k[5mC]*kA) [compound 799828] |  | 54
46 | 799829 (antisense kG*kA*kG*dT*dT*dT*dG*d[5mC]*dG*dA*dG*d[5mC]*d[5mC]*kA*kA*kG) [compound 799829] |  | 75
47 | 799830 (antisense kG*kA*kA*dG*dA*dG*dT*dT*dT*dG*d[5mC]*dG*dA*kG*k[5mC]*k[5mC]) [compound 799830] |  | 55
48 | 799831 (antisense kT*kA*k[5mC]*dT*dT*dG*dG*dA*dA*dG*dA*dG*dT*kT*kT*kG) [compound 799831] | 18 | 
49 | 799832 (antisense k[5mC]*kA*k[5mC]*d[5mC]*d[5mC]*dA*dT*dA*d[5mC]*dT*dT*dG*dG*kA*kA*kG) [compound 799832] | 14 | 
50 | 799833 (antisense kT*kT*kT*d[5mC]*dT*dG*dA*dA*d[5mC]*dA*dG*dA*dG*kT*k[5mC]*k[5mC]) [compound 799833] | 39 | 
51 | 799834 (antisense kG*kT*kG*dG*dT*dA*dT*dA*dG*d[5mC]*dA*dT*dG*k[5mC]*kA*kT) [compound 799834] | 0 | 
52 | 799835 (antisense kG*k[5mC]*kA*dG*dA*dT*dG*dT*dA*dT*dA*d[5mC]*dA*kA*kA*kT) [compound 799835] | 70 | 
